According to patent US5051419A, “Prevention or elimination of mycoplasma contamination of animal or plant cell cultures” (Dainippon Pharmaceutical Co., Ltd., priority 1988, dated 1991):
Values after ≈ are worked out from the molar mass of the structure shown.

Key:
M. arginini G-230 [1] = assay: Anti-mycoplasmal activity (MIC, MMC), liquid dilution method; format: cell-based, Mycoplasma arginini; conditions: Mycoplasmopsis arginini, liquid dilution, M. arginini G-230; for MBC: G230, 120 h, read-out: MMC; for MIC: G230, read-out: MIC
Protocol: (§1) The minimum growth inhibitory concentration (MIC, μg/ml) and minimum mycoplasmacidal concentration (MMC, μg/ml) of test chemicals were measured by the liquid dilution method. The method of measuring MIC in this example differs from that used in Test Example 1.
(§2) A 1,000 μg/ml aqueous solution of a test chemical was prepared, and diluted to 5 times with a preculture medium. The dilution (200 μg/ml) was serially diluted twofold with the same medium in a 8-well reservoir. Fifty microliters of each diluted solution was distributed in the wells of a microplate. A well to which no test chemical was added was used as a control.
(§3) A mycoplasma suspension for inoculation prepared as in Test Example 1 was pipetted in an amount of 50 microliters to each of the wells. The microplates were sealed by a plate seal, shaken by a micromixer, and cultivated at 37° C. for 5 days. In the control to which no test chemical was added, color change of the medium by the growth of mycoplasma was observed after two days from the start of the cultivation. At this time, 3 microliters of the liquid culture was inoculated in drug-free Chanock agar medium by using a Cathra-replicator. The liquid culture and the agar medium were further cultivated at 37° C. for 3 days (anaerobically in the case of M. orale, and aerobically in the case of A. laidlawii and M. arginini). MIC and MMC were determined from the results of observation on the 5th day. MIC was defined as the lowest concentration of the test chemical at which growth of mycoplasma in the drug-containing liquid medium was not noted, and MMC, as that in the drug-free agar medium.

M. arginini G-230 [2] = assay: Activity of eliminating artificially contaminated mycoplasma from L-929 cells; format: cell-based, Mycoplasma arginini
Protocol: Animal cells, experimentally contaminated by mycoplasma, were cultivated for 4 days in a medium containing the test chemical and then sub-cultivated in a medium to which the test chemical was not added in order to determine whether the mycoplasma re-grew (re-contamination).
(1) Preparation of mycoplasma-contaminated cells
The mycoplasmas described in Table 3 were each pre-cultivated as in Test Example 1, (1). Two milliliters of the cultures were centifuged at 1,500×g for 30 minutes to separate the mycoplasmas. The isolated mycoplasmas were suspended in 2 ml of 10%-FBS-MEM medium (Eagle's minimum essential medium supplemented with 10% fetal bovine serum and 100 U/ml of penicillin G).
Separately, mouse fibroblast cells L-929 was suspended in 10%-FBS-MEM medium so that their density became 2.5×10^4 /ml. Four milliliters of the suspension was put in a petri dish (diameter 6 cm) for tissue culture including two circular cover glasses (diameter 1.8 cm), and then 1 ml of the mycoplasma suspension described above was added. The mixture was incubated at 37° C. in 5% CO2 humidified atmosphere for 3 days, and then sub-cultivated twice in order to obtain mycoplasma-contaminated cells. Mycoplasma-contamination was confirmed by the highly specific DNA-fluorochromic staining method (the above cited "Procedures for Isolation and identification of Human, Animal and Plant Mycoplasmas", pages 95-97).
(2) Experiment of eliminating mycoplasma contamination
(§4) Mycoplasma-contaminated L-929 cells were cultivated as described in the preceding section. A 1,000 μg/ml aqueous solution of a test chemical was prepared, and diluted to predetermined concentrations with Eagle's minimum essential medium. The diluted solutions were added to the culture medium. Two petri dishes were used for each concentration of the test chemical, and two circular cover glasses were put in one of them for examination of mycoplasma. No cover glass was put in the other petri dish, and it was used for subcultivation. Cultivation in the test chemical-containing medium was carried out for 4 days, and thereafter, the cultivation was continued for 3 weeks in a drug-free medium. Medium replacement was effected every 3 to 4 days, and subcultivation was carried out once a week. Examination for mycoplasma contamination was performed on the 4th and 7th days, and thereafter every week. The mycoplasmas were detected by the highly specific DNA-fluorochromic staining method.

[3] = system: spontaneously contaminated human lung carcinoma cells [I]; assay: Activity of eliminating spontaneously contaminated mycoplasmas, cell [I]; format: cell-based, mycoplasma species unknown; human cells; also: key: +: mycoplasma positive; -: mycoplasma negative
Protocol: as §4
The activity of test compound to eliminate mycoplasma contamination was tested as in Test Example 3 on spontaneously contaminated human lung carcinoma cells [I] and human melanoma cells [II].
The period during which the cultivation was continued in the presence of the test chemicals was 7 days, and the mycoplasma species which infected the cells were unknown.

A. laidlawii PG-8 = assay: Anti-mycoplasmal activity (MIC, MMC), liquid dilution method; format: cell-based; conditions: Acholeplasma laidlawii, liquid dilution, A. laidlawii PG-8; for MBC: PG8, 120 h, read-out: MMC; for MIC: PG8, read-out: MIC
Protocol: as §1, §2, §3

## CC1CN(c2c(F)c(N)c3c(=O)c(C(=O)O)cn(C4CC4)c3c2F)CCN1 (centres unmarked) [Compound 1]
M. arginini G-230 [1]
  MBC: 0.1 µg/mL (≈ 0.264 µM)
  MIC: 0.1 µg/mL (≈ 0.264 µM)
M. arginini G-230 [2]; 0.2 μg/ml, day 0
  mycoplasma elimination: +
M. arginini G-230 [2]; 0.2 μg/ml, day 4
  mycoplasma elimination: +
M. arginini G-230 [2]; 0.2 μg/ml, day 7
  mycoplasma elimination: +
M. arginini G-230 [2]; 0.2 μg/ml, day 14
  mycoplasma elimination: +
M. arginini G-230 [2]; 0.2 μg/ml, day 28
  mycoplasma elimination: +
M. arginini G-230 [2]; 0.39 μg/ml, day 0
  mycoplasma elimination: +
M. arginini G-230 [2]; 0.39 μg/ml, day 4
  mycoplasma elimination: -
M. arginini G-230 [2]; 0.39 μg/ml, day 7
  mycoplasma elimination: -
M. arginini G-230 [2]; 0.39 μg/ml, day 14
  mycoplasma elimination: -
M. arginini G-230 [2]; 0.39 μg/ml, day 28
  mycoplasma elimination: -
[3]; 0.2 μg/ml, day 0
  mycoplasma elimination: +
[3]; 0.2 μg/ml, day 7
  mycoplasma elimination: +
[3]; 0.2 μg/ml, day 14
  mycoplasma elimination: +
[3]; 0.2 μg/ml, day 28
  mycoplasma elimination: +
[3]; 0.39 μg/ml, day 0
  mycoplasma elimination: +
[3]; 0.39 μg/ml, day 7
  mycoplasma elimination: -
[3]; 0.39 μg/ml, day 14
  mycoplasma elimination: -
[3]; 0.39 μg/ml, day 28
  mycoplasma elimination: -
A. laidlawii PG-8
  MBC: 0.2 µg/mL (≈ 0.529 µM)
  MIC: 0.2 µg/mL (≈ 0.529 µM)

## CN(C)c1ccc(O)c2c1C[C@H]1C[C@H]3[C@H](N(C)C)C(O)=C(C(N)=O)C(=O)[C@@]3(O)C(O)=C1C2=O [Compound 3, minocycline]
M. arginini G-230 [1]
  MBC: > 100 µg/mL
  MIC: 0.39 µg/mL (≈ 0.852 µM)
M. arginini G-230 [2]; 12.5 μg/ml, day 0
  mycoplasma elimination: +
M. arginini G-230 [2]; 12.5 μg/ml, day 4
  mycoplasma elimination: -
M. arginini G-230 [2]; 12.5 μg/ml, day 7
  mycoplasma elimination: -
M. arginini G-230 [2]; 12.5 μg/ml, day 14
  mycoplasma elimination: +
M. arginini G-230 [2]; 12.5 μg/ml, day 28
  mycoplasma elimination: +
A. laidlawii PG-8
  MBC: > 100 µg/mL
  MIC: 0.2 µg/mL (≈ 0.437 µM)

## NCC1CN(c2c(F)c(N)c3c(=O)c(C(=O)O)cn(C4CC4)c3c2F)CCO1 (centres unmarked) [Compound A, 5-amino-7-(2-aminomethylmorpholino)-1-cyclopropyl-6,8-difluoro-1,4-dihydro-4-oxoquinoline-3-carboxylic acid]
M. arginini G-230 [1]
  MBC: 0.05 µg/mL (≈ 0.127 µM)
  MIC: 0.05 µg/mL (≈ 0.127 µM)
M. arginini G-230 [2]; 0.1 μg/ml, day 0
  mycoplasma elimination: +
M. arginini G-230 [2]; 0.1 μg/ml, day 4
  mycoplasma elimination: +
M. arginini G-230 [2]; 0.1 μg/ml, day 7
  mycoplasma elimination: +
M. arginini G-230 [2]; 0.1 μg/ml, day 14
  mycoplasma elimination: +
M. arginini G-230 [2]; 0.1 μg/ml, day 28
  mycoplasma elimination: +
M. arginini G-230 [2]; 0.2 μg/ml, day 0
  mycoplasma elimination: +
M. arginini G-230 [2]; 0.2 μg/ml, day 4
  mycoplasma elimination: -
M. arginini G-230 [2]; 0.2 μg/ml, day 7
  mycoplasma elimination: -
M. arginini G-230 [2]; 0.2 μg/ml, day 14
  mycoplasma elimination: -
M. arginini G-230 [2]; 0.2 μg/ml, day 28
  mycoplasma elimination: -
[3]; 0.1 μg/ml, day 0
  mycoplasma elimination: +
[3]; 0.1 μg/ml, day 7
  mycoplasma elimination: +
[3]; 0.1 μg/ml, day 14
  mycoplasma elimination: +
[3]; 0.1 μg/ml, day 28
  mycoplasma elimination: +
[3]; 0.2 μg/ml, day 0
  mycoplasma elimination: +
[3]; 0.2 μg/ml, day 7
  mycoplasma elimination: -
[3]; 0.2 μg/ml, day 14
  mycoplasma elimination: -
[3]; 0.2 μg/ml, day 28
  mycoplasma elimination: -
A. laidlawii PG-8
  MBC: 0.0125 µg/mL (≈ 0.0317 µM)
  MIC: 0.0125 µg/mL (≈ 0.0317 µM)
